Experiments:
[1] = rat, in vivo, iv; cited from earlier work
Mpro of 229E = Mpro of 229E (Human coronavirus 229E, UniProt P0C6X1); experiment: biochemical
Mpro of NL63 = Mpro of NL63 (Human coronavirus NL63, UniProt P0C6X5); experiment: biochemical
Mpro of OC43 = Mpro of OC43 (Human coronavirus OC43, UniProt P0C6X6); experiment: biochemical
Mpro of HKU1 = Mpro of HKU1 (Human coronavirus HKU1, UniProt P0C6X2); experiment: biochemical
Mpro of SARS-CoV-1 = Mpro of SARS-CoV-1 (Severe acute respiratory syndrome coronavirus, UniProt P0C6X7); experiment: biochemical
Mpro of MERS = Mpro of MERS (Middle East respiratory syndrome-related coronavirus, UniProt K9N7C7); experiment: biochemical
Mpro of MERS, sequence (K9N7C7 3248-3553 limits assumed): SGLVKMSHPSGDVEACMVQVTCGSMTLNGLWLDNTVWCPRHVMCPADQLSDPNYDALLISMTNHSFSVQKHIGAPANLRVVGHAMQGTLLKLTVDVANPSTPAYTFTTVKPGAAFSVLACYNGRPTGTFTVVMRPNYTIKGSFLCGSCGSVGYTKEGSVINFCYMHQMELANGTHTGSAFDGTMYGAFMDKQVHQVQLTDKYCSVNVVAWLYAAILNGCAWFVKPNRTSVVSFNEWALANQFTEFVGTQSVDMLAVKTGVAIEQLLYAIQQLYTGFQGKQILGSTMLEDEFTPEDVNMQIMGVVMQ

Mpro of HKU1, sequence (P0C6X2 3335-3637): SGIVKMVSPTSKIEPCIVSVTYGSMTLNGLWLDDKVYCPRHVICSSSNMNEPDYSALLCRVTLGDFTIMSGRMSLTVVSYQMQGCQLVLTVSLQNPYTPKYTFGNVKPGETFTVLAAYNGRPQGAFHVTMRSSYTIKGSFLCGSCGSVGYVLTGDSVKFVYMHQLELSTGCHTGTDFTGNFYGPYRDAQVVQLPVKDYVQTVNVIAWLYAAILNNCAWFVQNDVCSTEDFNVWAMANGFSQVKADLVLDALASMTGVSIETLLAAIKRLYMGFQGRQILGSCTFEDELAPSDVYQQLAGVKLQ
Mpro of NL63, sequence (P0C6X5 2940-3242): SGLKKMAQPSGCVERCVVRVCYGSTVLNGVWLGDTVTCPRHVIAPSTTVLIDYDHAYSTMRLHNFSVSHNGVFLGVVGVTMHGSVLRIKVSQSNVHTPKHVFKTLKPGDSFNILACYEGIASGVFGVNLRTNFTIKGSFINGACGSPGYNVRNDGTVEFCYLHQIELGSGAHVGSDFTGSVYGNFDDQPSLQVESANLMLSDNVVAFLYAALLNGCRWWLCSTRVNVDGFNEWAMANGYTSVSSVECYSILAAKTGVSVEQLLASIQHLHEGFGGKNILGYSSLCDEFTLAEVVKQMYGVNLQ
Mpro of 229E, sequence (P0C6X1 2966-3267): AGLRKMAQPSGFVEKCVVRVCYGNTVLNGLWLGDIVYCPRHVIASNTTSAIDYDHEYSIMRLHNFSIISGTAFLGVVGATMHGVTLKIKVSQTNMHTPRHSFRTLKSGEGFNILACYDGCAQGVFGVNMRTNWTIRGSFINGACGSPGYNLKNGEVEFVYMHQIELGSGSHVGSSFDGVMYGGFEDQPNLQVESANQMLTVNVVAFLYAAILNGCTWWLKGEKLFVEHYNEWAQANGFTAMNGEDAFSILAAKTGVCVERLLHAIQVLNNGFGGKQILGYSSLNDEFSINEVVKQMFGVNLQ
Mpro of OC43, sequence (P0C6X6 3247-3549): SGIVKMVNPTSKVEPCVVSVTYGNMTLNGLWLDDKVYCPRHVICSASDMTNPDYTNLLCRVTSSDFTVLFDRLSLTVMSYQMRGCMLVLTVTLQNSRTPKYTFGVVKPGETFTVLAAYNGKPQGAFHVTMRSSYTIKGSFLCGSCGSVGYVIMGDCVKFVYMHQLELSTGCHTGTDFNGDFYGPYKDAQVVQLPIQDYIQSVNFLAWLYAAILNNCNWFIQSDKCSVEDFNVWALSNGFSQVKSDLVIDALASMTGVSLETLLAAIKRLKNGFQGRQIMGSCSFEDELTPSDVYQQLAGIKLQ

SMILES	half-life [1] [h]	IC50 (Mpro of 229E) [nM]	IC50 (Mpro of NL63) [nM]	IC50 (Mpro of OC43) [nM]	IC50 (Mpro of HKU1) [nM]	IC50 (Mpro of SARS-CoV-1) [nM]	IC50 (Mpro of MERS) [nM]
CC(C)(C)[C@H](NC(=O)C(F)(F)F)C(=O)N1C[C@H]2[C@@H]([C@H]1C(=O)N[C@H](C#N)C[C@@H]1CCNC1=O)C2(C)C [Nirmatrelvir, nirmatrelvir]	0.5	–	–	–	–	–	–
Cn1cnc(Cn2c(=O)[nH]/c(=N\c3cc4cn(C)nc4cc3Cl)n(Cc3cc(F)c(F)cc3F)c2=O)n1 [Ensitrelvir, ensitrelvir]	2.4	–	–	–	–	–	–
O=C(NC1CCCC1)C(=O)[C@H](C[C@@H]1CCNC1=O)NC(=O)[C@@H]1[C@H]2CCC[C@H]2CN1C(=O)[C@@H](NC(=O)C(F)(F)F)C1CCCCC1 [Leritrelvir, leritrelvir]	4.8	101	272	53.2	52.3	73	945
CC(C)CC(NC(=O)OCc1ccccc1)C(=O)NC(CC1CCNC1=O)C(O)S(=O)(=O)O (centres unmarked) [GC376]	–	–	438	–	73.3	–	–

Reference: article PMC12806454 (Quantitative Biology, 2024)
